In this assay the target is Squalene monooxygenase (Sus scrofa). The experiment in a line: Compound was evaluated for the inhibition of pig liver microsomal squalene epoxidase. A general note: Microsomes from liver hold many membrane-bound enzymes, among them those of drug oxidation.

In general, IC50 refers to the concentration that gives 50% inhibition. A low value points to higher potency.

In the case of `CCN(C/C=C/C#CC(C)(C)C)Cc1cccc(NC[Si](C)(C)c2ccccc2C)c1` [(3-{[((E)-6,6-Dimethyl-hept-2-en-4-ynyl)-ethyl-amino]-methyl}-phenyl)-[(dimethyl-o-tolyl-silanyl)-methyl]-amine], half-maximal inhibition (IC50) was put at 100 nM.

The values are drawn from BindingDB's records for doi:10.1016/0960-894X(96)00063-7 (1996).
